Source: ChEMBL document CHEMBL3885881, “DrugMatrix”

Organism: Rattus norvegicus
Assay: DrugMatrix - Regimen: Daily Repeat
Assay type: toxicity, organism-based, Sprague-Dawley
Design: regimen Daily Repeat, gender Male, age 6-8 weeks
Conditions: in vivo, po, route oral GAVAGE, vehicle 100 % WATER; for ABSOLUTE BASOPHIL / ABSOLUTE EOSINOPHIL / ABSOLUTE LYMPHOCYTE / ABSOLUTE MONOCYTE / ABSOLUTE SEGMENTED NEUTROPHIL / BASOPHIL / EOSINOPHIL / ERYTHROCYTE COUNT / HEMATOCRIT / HEMOGLOBIN / LEUKOCYTE COUNT / LYMPHOCYTE / MEAN CORPUSCULAR HEMOGLOBIN / MEAN CORPUSCULAR HEMOGLOBIN CONCENTRATION / MEAN CORPUSCULAR VOLUME / MONOCYTE / NEUTROPHIL / NUCLEATED RED BLOOD CELLS / PLATELET COUNT: tissue Blood; for ALANINE AMINOTRANSFERASE / ALBUMIN / ALKALINE PHOSPHATASE / ASPARTATE AMINOTRANSFERASE / BLOOD UREA NITROGEN / CARBON DIOXIDE / CHLORIDE / CHOLESTEROL / CREATINE PHOSPHOKINASE / CREATININE / GLUCOSE / LACTATE DEHYDROGENASE / LIPASE / PHOSPHORUS / POTASSIUM / SODIUM / TOTAL BILIRUBIN / TOTAL PROTEIN / URIC ACID: tissue Plasma
[1] = 0 mg/kg, 72 h, dose level Control, time 3 day
[2] = 0 mg/kg, 120 h, dose level Control, time 5 day
[3] = 200 mg/kg, 72 h, dose level Low, time 3 day

## O=C(O)c1cccnc1 [NIACIN]
[1]
  ABSOLUTE BASOPHIL: 0 CELLS/uL
  ABSOLUTE EOSINOPHIL: 0 CELLS/uL
  ABSOLUTE LYMPHOCYTE: 10386.33 CELLS/uL
  ABSOLUTE MONOCYTE: 88.5 CELLS/uL
  ABSOLUTE SEGMENTED NEUTROPHIL: 1008.5 CELLS/uL
  BASOPHIL: 0%
  EOSINOPHIL: 0%
  ERYTHROCYTE COUNT: 5.16 x10E6/uL
  HEMATOCRIT: 32.43%
  HEMOGLOBIN: 12.98 G/DL
  LEUKOCYTE COUNT: 11.48 x10E3/uL
  LYMPHOCYTE: 92.33%
  MEAN CORPUSCULAR HEMOGLOBIN: 25.23 pg
  MEAN CORPUSCULAR HEMOGLOBIN CONCENTRATION: 40.08 G/DL
  MEAN CORPUSCULAR VOLUME: 62.95 fL
  MONOCYTE: 0.67%
  NEUTROPHIL: 7%
  NUCLEATED RED BLOOD CELLS: 0 /100WBC
  PLATELET COUNT: 1016.67 x10E3/uL
  ALANINE AMINOTRANSFERASE: 62.17 u/L
  ALBUMIN: 3.95 G/DL
  ALKALINE PHOSPHATASE: 363.5 u/L
  ASPARTATE AMINOTRANSFERASE: 118 u/L
  BLOOD UREA NITROGEN: 14.5 mg/dL
  CARBON DIOXIDE: 22.83 mmol/L
  CHLORIDE: 100.67 MEQ/L
  CHOLESTEROL: 66 mg/dL
  CREATINE PHOSPHOKINASE: 1308.83 u/L
  CREATININE: 0.22 mg/dL
  GLUCOSE: 187.5 mg/dL
  LACTATE DEHYDROGENASE: 380.17 u/L
  LIPASE: 16.17 u/L
  PHOSPHORUS: 14.27 mg/dL
  POTASSIUM: 6.8 MEQ/L
  SODIUM: 142.53 MEQ/L
  TOTAL BILIRUBIN: 0.2 mg/dL
  TOTAL PROTEIN: 5.68 G/DL
  URIC ACID: 2.87 mg/dL
[2]
  ABSOLUTE BASOPHIL: 0 CELLS/uL
  ABSOLUTE EOSINOPHIL: 80 CELLS/uL
  ABSOLUTE LYMPHOCYTE: 13301.33 CELLS/uL
  ABSOLUTE MONOCYTE: 180.83 CELLS/uL
  ABSOLUTE SEGMENTED NEUTROPHIL: 1187.83 CELLS/uL
  BASOPHIL: 0%
  EOSINOPHIL: 0.5%
  ERYTHROCYTE COUNT: 5.54 x10E6/uL
  HEMATOCRIT: 35.65%
  HEMOGLOBIN: 14.22 G/DL
  LEUKOCYTE COUNT: 14.75 x10E3/uL
  LYMPHOCYTE: 90.67%
  MEAN CORPUSCULAR HEMOGLOBIN: 25.65 pg
  MEAN CORPUSCULAR HEMOGLOBIN CONCENTRATION: 39.88 G/DL
  MEAN CORPUSCULAR VOLUME: 64.35 fL
  MONOCYTE: 1%
  NEUTROPHIL: 7.83%
  NUCLEATED RED BLOOD CELLS: 0.17 /100WBC
  PLATELET COUNT: 1285.33 x10E3/uL
  ALANINE AMINOTRANSFERASE: 51.67 u/L
  ALBUMIN: 4.08 G/DL
  ALKALINE PHOSPHATASE: 391.5 u/L
  ASPARTATE AMINOTRANSFERASE: 99.5 u/L
  BLOOD UREA NITROGEN: 15.5 mg/dL
  CARBON DIOXIDE: 28.33 mmol/L
  CHLORIDE: 101.83 MEQ/L
  CHOLESTEROL: 67.83 mg/dL
  CREATINE PHOSPHOKINASE: 771.33 u/L
  CREATININE: 0.23 mg/dL
  GLUCOSE: 156.5 mg/dL
  LACTATE DEHYDROGENASE: 544.33 u/L
  LIPASE: 10.17 u/L
  PHOSPHORUS: 12.03 mg/dL
  POTASSIUM: 6.81 MEQ/L
  SODIUM: 144.13 MEQ/L
  TOTAL BILIRUBIN: 0.22 mg/dL
  TOTAL PROTEIN: 6 G/DL
  URIC ACID: 2.18 mg/dL
[3]
  ABSOLUTE BASOPHIL: 0 CELLS/uL
  ABSOLUTE EOSINOPHIL: 118.67 CELLS/uL
  ABSOLUTE LYMPHOCYTE: 13131.33 CELLS/uL
  ABSOLUTE MONOCYTE: 410.33 CELLS/uL
  ABSOLUTE SEGMENTED NEUTROPHIL: 1606.33 CELLS/uL
  BASOPHIL: 0%
  EOSINOPHIL: 0.67%
  ERYTHROCYTE COUNT: 5.09 x10E6/uL
  HEMATOCRIT: 32.87%
  HEMOGLOBIN: 13.13 G/DL
  LEUKOCYTE COUNT: 15.27 x10E3/uL
  LYMPHOCYTE: 86%
  MEAN CORPUSCULAR HEMOGLOBIN: 25.8 pg
  MEAN CORPUSCULAR HEMOGLOBIN CONCENTRATION: 39.97 G/DL
  MEAN CORPUSCULAR VOLUME: 64.6 fL
  MONOCYTE: 2.67%
  NEUTROPHIL: 10.67%
  NUCLEATED RED BLOOD CELLS: 0 /100WBC
  PLATELET COUNT: 1167 x10E3/uL
  ALANINE AMINOTRANSFERASE: 51 u/L
  ALBUMIN: 4 G/DL
  ALKALINE PHOSPHATASE: 346.33 u/L
  ASPARTATE AMINOTRANSFERASE: 113.33 u/L
  BLOOD UREA NITROGEN: 12 mg/dL
  CARBON DIOXIDE: 23.33 mmol/L
  CHLORIDE: 103.33 MEQ/L
  CHOLESTEROL: 74.67 mg/dL
  CREATINE PHOSPHOKINASE: 1459.33 u/L
  CREATININE: 0.2 mg/dL
  GLUCOSE: 170 mg/dL
  LACTATE DEHYDROGENASE: 168.33 u/L
  LIPASE: 11 u/L
  PHOSPHORUS: 12.67 mg/dL
  POTASSIUM: 5.75 MEQ/L
  SODIUM: 144.4 MEQ/L
  TOTAL BILIRUBIN: 0.2 mg/dL
  TOTAL PROTEIN: 5.8 G/DL
  URIC ACID: 1.1 mg/dL
